The subject of data set [1] is S. aureus. It counts as cell-based, Staphylococcus aureus (NBRC100910). On the procedure: (§1) S. aureus (NBRC100910), E. coli W3110 (NBRC12713), E. hirae (NBRC3181), C. albicans (NBRC1385), and S. Typhimurium 14028s (ATCC14028)[2] were used in this study. S. aureus, E. coli, and S. Typhimurium were grown at 37 °C with aeration in Muller-Hinton II medium (BD Biosciences). E. hirae was grown at 37 °C in LB medium (Nacalai Tesque, Inc.) containing 0.5% glucose (w/v). C. albicans was grown at room temperature with aeration in YM medium (BD Biosciences). All experiments were conducted using bacterial cells and C. albicans in the logarithmic-phase of growth.
(§2) Bacterial suspensions in Muller-Hinton II medium were adjusted to an optical density of 550 nm (OD550) = 0.0011. C. albicans suspensions in YM medium were adjusted to OD650 = 0.033. Peptides were serially diluted in 10 mM phosphate buffer (pH 6.0) containing 130 mM sodium chloride, 0.2% bovine serum albumin, and 2.56% dimethyl sulfoxide. The peptide solution (100 μl) was mixed with 100 μl of bacteria or C. albicans suspensions. Bacterial cultures were incubated for one day at 37 °C. C. albicans cultures were incubated for two days at room temperature. Cell growth was monitored optically and the MIC was determined.

For data set [2], the system named is S. aureus. As to the kind of experiment: Inhibition of antimicrobial activity by bacterial cell wall components. Format: cell-based, Staphylococcus aureus. As to conditions: Kn2–7 6.25 μg/ml, Mastoparan M 8 μg/ml, 10 min. On the procedure:
(§3) Bacteria and C. albicans were suspended in growth medium. Peptides suspended in dimethyl sulfoxide were serially diluted in 10 mM phosphate buffer (pH 6.0) containing 130 mM sodium chloride, 0.2% bovine serum albumin as described previously. In order to examine the effects of bovine serum albumin on the assay, 10 mM phosphate buffer (pH 6.0) containing 130 mM sodium chloride, was used for the dilution of peptides. Peptide solution (500 μl) was added to 500 μl of bacteria suspensions and then the mixture was incubated at 37 °C for 10 min. In order to examine the effects of culture medium components on the assay, bacteria suspension was prepared with 10 mM phosphate buffer (pH 6.0) containing 130 mM sodium chloride. Alternatively, 500 μl of peptide solution was added to 500 μl of C. albicans suspensions and the mixture was incubated at room temperature for 10 min. The inhibitory effects of the bacterial components were analyzed by incubating 450 μl of S. aureus suspension with 500 μl of peptide solution plus 50 μl of inhibitor samples at 37 °C for 10 min. Then, the peptide/bacteria suspensions were diluted and plated onto LB agar, LB agar containing 0.5% glucose, or YM agar. After cultivation of the plates, colony forming units (CFU) in the peptide/bacteria suspension were calculated based on the average of triplicate plates.
Peptidoglycan (120 μg) prepared from S. aureus was added to 1 mg/ml of lysozyme in phosphate buffered saline (150 μl)[33]. Peptidoglycan without lysozyme and lysozyme without peptidoglycan were also prepared as controls. Samples were incubated overnight at 37 °C, and then incubated at 100 °C for 15 min to inactivate lysozyme. For heat-inactivation of peptidoglycan, 600 μg of peptidoglycan suspended in water (300 μl) was incubated at 100 °C for 15 min. The samples were sonicated for 10 sec at setting 1 using a Branson sonifier model S-150D. These samples were used as inhibitor samples for antimicrobial activity assays.

The subject of data set [3] is S. aureus. The experiment in a line: Assay for membrane permeability (ethidium influx). It counts as cell-based, Staphylococcus aureus. Conditions: 20 μg/ml peptide, fluorescence for 180 sec, 10 mM phosphate buffer pH 6.0, 130 mM NaCl, 0.2% BSA. As for the experimental part:
To examine membrane permeability, ethidium influx rates were examined as previously described. S. aureus suspension cultures were adjusted to an OD600 of 0.4 in 10 mM phosphate buffer (pH 6.0) containing 130 mM sodium chloride and 0.2% bovine serum albumin. Then, peptide in dimethyl sulfoxide (8 μl) or dimethyl sulfoxide alone (8 μl) was added to 2 ml of S. aureus suspensions. At 30 sec after the addition of peptide, ethidium bromide was added to a final concentration of 5 μg/ml, and fluorescence of the ethidium-nucleic acid complex was monitored using a RF-5300PC spectrofluorometer (Shimadzu). Excitation and emission wavelengths were 545 nm with 5 nm slits and 600 nm with 10 nm slits, respectively.

In data set [4] the test system is S. aureus. The experiment in a line: Assay for antimicrobial activity (10 min exposure, CFU). As to conditions: 10 min at 37 °C, standard assay with culture medium and 0.2% BSA, triplicate plates. Format: cell-based, Staphylococcus aureus (NBRC100910). On the procedure:
as §1, §3

For data set [5], the system named is E. coli. It counts as cell-based, Escherichia coli W3110 (NBRC12713). As to conditions: pH 6. On the procedure:
as §1, §2

Data set [6] concerns C. albicans. Format: cell-based, Candida albicans (NBRC1385). On the procedure: as §1, §2
In data set [7] the test system is S. aureus. As to the kind of experiment: Peptide degradation in the S. aureus assay mixture (SDS-PAGE, Ruby stain). Format: in vitro ADME, Staphylococcus aureus. Conditions: 15 μg/ml peptide with S. aureus, 10 min at 37 °C, antimicrobial assay mixture, Ruby protein gel stain.
For data set [8], the system named is Gram-positive bacteria. Conditions: cited from earlier work. An excerpt: Sapecin B is an antimicrobial peptide that was originally isolated from the culture medium of an embryonic cell line, NIH-Sape-4, derived from Sarcophaga peregrine (flesh fly). […] Two other related proteins, sapecin and sapecin C, were also isolated from culture medium of NIH-Sape-4[13][14][15]. Sapecin B has significant sequence similarity to a scorpion venom toxin, charybdotoxin[13][16]. Structural comparison of sapecin B and charybdotoxin identified the undecapeptide RSLCLLHCRLK-NH2, which corresponds to amino acid residues 7 to 1 ...

[9] abbreviates: S. aureus, Muller-Hinton II medium mixed 1:1 with peptide in 10 mM phosphate buffer pH 6.0, 130 mM NaCl, 0.2% BSA, 2.56% DMSO, one day at 37 °C, growth monitored optically.

Converted amounts (≈) assume the structure as drawn. Like-named read-outs stand apart in the source and are kept apart here. Non-standard residues stand in square brackets, D forms with d. Residues, ends and D or L forms follow the SMILES beside them. No end group written: not given here.

What is called MIC is the least concentration at which growth counts as inhibited. Low values mean greater potency, high ones weaker potency.

For the compound `CC[C@@H](C)[C@@H](NC(=O)[C@H](N)Cc1ccccc1)C(=O)N[C@H](CCCCN)C(=O)N[C@H](CCCNC(=N)N)C(=O)N[C@@H](C(=O)N[C@H](C)C(=O)N[C@H](CCCNC(=N)N)C(=O)N[C@H](CC(C)C)C(=O)N[C@H](CC(C)C)C(=O)N[C@H](CCCNC(=N)N)C(=O)N[C@H](CCCCN)C(=O)N[C@@H](C(=O)N[C@H](Cc1ccccc1)C(N)=O)[C@H](C)CC)[C@H](C)CC` [D-form FIKRIARLLRKIF-NH2, reference compound] (H-[dF][dI][dK][dR][dI][dA][dR][dL][dL][dR][dK][dI][dF]-NH2; N-terminus assumed), the MIC in data set [1] (setting [9]) worked out at 4 µg/mL (≈ 2.39 µM). In data set [2], the “inhibitory effect of S. aureus peptidoglycan on the antimicrobial activity” value is “significant inhibitory effects”.
Turning to `CC[C@@H](C)[C@@H](NC(=O)CNC(=O)[C@@H](CO)NC(=O)[C@@H](CC(C)C)NC(=O)[C@H](NC(=O)[C@@H](CCCNC(=N)N)NC(=O)CNC(=O)[C@H](NC(=O)[C@@H](CC(C)C)NC(=O)[C@H]1CCCN1C(=O)[C@@H](CC(C)C)NC(=O)[C@H](N)Cc1ccccc1)[C@H](C)CC)C(C)C)C(=O)N[C@H](CC(C)C)C(N)=O` [D-form FLPLIGRVLSGIL-NH2, reference compound] (H-[dF][dL][dP][dL][dI]G[dR][dV][dL][dS]G[dI][dL]-NH2; N-terminus assumed), the minimum inhibitory concentration (MIC) in data set [1] (setting [9]) stood at 8 µg/mL (≈ 5.73 µM).
For `CC[C@@H](C)[C@@H](N)C(=O)N[C@H](CC(N)=O)C(=O)N[C@H](CC(C)C)C(=O)N[C@H](CCCCN)C(=O)N[C@H](C)C(=O)N[C@@H](C(=O)N[C@H](C)C(=O)N[C@H](C)C(=O)N[C@H](CC(C)C)C(=O)N[C@H](C)C(=O)N[C@H](CCCCN)C(=O)N[C@H](CCCCN)C(=O)N[C@H](CC(C)C)C(=O)N[C@H](CC(C)C)C(N)=O)[C@H](C)CC` [D-form INLKAIAALAKKLL-NH2, reference compound] (H-[dI][dN][dL][dK][dA][dI][dA][dA][dL][dA][dK][dK][dL][dL]-NH2), the MIC in data set [1] (setting [9]) was 16 µg/mL (≈ 10.8 µM). The “ethidium bromide influx rate” value in data set [3] was “increased ethidium bromide influx rates to a similar extent”. In data set [2], the “inhibitory effect of S. aureus peptidoglycan on the antimicrobial activity” value is on record as “weak inhibitory effects”.
Consider `CC(C)C[C@@H](NC(=O)[C@H](N)CCCCN)C(=O)N[C@H](CCCCN)C(=O)N[C@H](CC(C)C)C(=O)N[C@H](CC(C)C)C(=O)N[C@H](CC(C)C)C(=O)N[C@H](CCCCN)C(=O)N[C@H](CC(C)C)C(=O)N[C@H](CCCCN)C(N)=O` [D-form KLKLLLKLK-NH2] (H-[dK][dL][dK][dL][dL][dL][dK][dL][dK]-NH2; N-terminus assumed), for which the “fold by which the MIC of the D-form is lower than that of the L-form” value in data set [1] (S. aureus) is listed as “more than 32 fold”. For the same compound, the MIC in data set [1] (setting [9]) turned out to be 4 µg/mL (≈ 3.65 µM). Besides, in data set [4], the “antimicrobial activity (CFU), D-form compared with L-form” value is given as “higher”.
“FIKRIARLLRKIF-NH2 [L-form FIKRIARLLRKIF-NH2, reference compound]” showed an MIC in data set [1] (setting [9]) of 4 µg/mL.
Same read-out and setting: to “FLPLIGRVLSGIL-NH2 [L-form FLPLIGRVLSGIL-NH2, reference compound]” belongs 8 µg/mL; to “INLKAIAALAKKLL-NH2 [L-form INLKAIAALAKKLL-NH2, reference compound]”, 16 µg/mL; to KLKLLLKLK-NH2 [L-form KLKLLLKLK-NH2], greater than 128 µg/mL.
Consider “KLKLLLLLKLK-NH2 [L-form KLKLLLLLKLK-NH2]”, for which the MIC in data set [1] (pH 6) is 16 µg/mL; in data set [5] it was 16 µg/mL; in data set [6], 64 µg/mL. For the same compound, the “specific degradation of the peptide” value in data set [7] is reported as “specific degradation of the L-form peptide was not observed”.
For “RSLCLLHCRLK-NH2 [undecapeptide, amino acid residues 7 to 17 of sapecin B with C-terminal amidation]”, the antimicrobial activity entry in data set [8] is given as “significant antimicrobial activity”.

(Values after publication PMC5338256, “D-form KLKLLLLLKLK-NH2 peptide exerts higher antimicrobial properties than its L-form counterpart via an association with bacterial cell wall components” (Scientific Reports, 2017).)
